Measured values published in patent US20100152129A1 (priority 2008, published 2010).

Key:
Panc-1 cells [1] = experiment: Propidium iodide-based fluorescence cytotoxicity assay; type: cell-based; conditions: single agent
Method: The combination of P276-00 and Gemcitabine was screened for its synergistic effect in Panc-1 cells using propidium iodide based fluorescence cytotoxicity assay.
Test System: The Panc-1 cell line was procured from ATCC (American Tissue type Culture Collection), USA. Catalog number: CRL-1469 and the frozen vial was stored in liquid nitrogen container. Propidium iodide dye was procured from Sigma-Aldrich, USA. Catalog number: P-4170-100 mg and it was stored at 2-8° C.
Method: Panc-1 cells were seeded at a density of 2000 cells/well, in a 200 μL in tissue culture grade 96 well plate and allowed to recover for 24 hrs in a humidified 5%±0.2 CO2 incubator at 37° C.±0.5° C. After 24 hrs, 1 μL of 200 X (200 times higher than required concentration is denoted as 200×) compound (dissolved in neat DMSO), as per Table 1 or 2 was added to the wells. The final DMSO concentration was 0.5% in wells. The plate was incubated for 24 hrs in humidified 5%±0.2 CO2 incubator at 37±0.5° C.
After 24 hrs Minimum Essential Medium (MEM) from the Gemcitabine treated wells was removed and washed two times with fresh MEM and followed by addition of 200 μL of fresh MEM per well. 1 μL of 200× (200 times higher than required concentration is denoted as 200×) compound (dissolved in neat DMSO) was then added as per the Table 1 and 2 designs. The final DMSO concentration was 0.5% in wells which also served as the vehicle control for the study. After 72 hrs the plate was removed from CO2 incubator and spent MEM aspirated from the wells and supplemented with fresh MEM. This was followed by addition of 25 μL of propidium iodide (50 μg/ml in medium) per well. The same plate was frozen at −80° C. for 24 hrs and then thawed and allowed to come to room temperature. The fluorescence at a wavelength of 530 nm excitation and 620 nm emission was read.
The percent cytotoxicity was calculated using the following formula

Panc-1 cells [2] = experiment: Protein expression using high content cell imaging system, and efficacy score; type: cell-based; conditions: for Efficacy score: cumulative over proteins of Table 7
Panc-1 cells [3] = experiment: Microarray gene expression analysis; type: cell-based, human; conditions: Panc-1, microarray
Source text: The goal of the microarray analysis was to evaluate putative gene expression signatures associated with the in vitro synergistic effect of the combination therapy of Gemcitabine with […]-00 in Panc-1 cells. The time points (3 hrs, 6 hrs, 12 hrs) were chosen to establish early molecular changes in the transcription profile for probable biomarkers and mechanism of action for the combination therapy. Approximately 20 million cells were lysed in Trizol Reagent (Invitrogen Corp, USA) and passed through a 21-gauge needle for 5-10 times before RNA extraction was performed. Total RNA extraction was performed using the RNeasy Mini kit (Qiagen, USA) according to the manufacturer's protocol. The final total RNA was eluted in nuclease-free water and the concentration/purity was determined by Nanodrop spectrophotometer (Thermo Fisher Scientific, Delaware, USA). cDNA generation and labeling: 20 μg of total RNA was reverse transcribed using amino allyl dUTP and oligo dT, the resulting cDNA was indirectly labeled with Cy3/Cy5 dyes (GE Healthcare, USA) using a fluorescent labeling kit (Promega Biosciences, USA). The concentration and dye incorporation of the labeled products were determined by Nanodrop spectrophotometer (Thermo Fisher Scientific, Delaware, USA). Equal amounts of labeled cDNA were denatured at 95° C. for 5 mins, cooled and microfuged at 13200 rpm for 5 mins before hybridization. Array fabrication and hybridization: 70-mer transcript oligonucleotides representing 36,480 human genes was purchased from Operon Biotechnologies (Germany) and spotted onto aminosilane coated glass slides (ArrayIt, USA) by contact printing using a Omnigrid (OG100) spotter (Genomic Solutions Inc, USA). Post printing, the slides were cross-linked with UV light at […], vacuumed, sealed and stored in the dark. The slides were pre-processed for background reduction using Pronto (Promega Life sciences, USA) pre-hyb kit as per the manufacturer's instructions. Hybridization was carried out in the GeneTAC Hybstation (Genomic Solutions Inc, USA) for 18 hrs. The hybridization protocol is as follows: 6 hrs at 42° C. (with agitation), 6 hrs at 35° C. (with agitation), and 6 hrs at 30° C. (with agitation). Post hybridization, the arrays were washed according to the manufacturer's protocol. The slides were dried by centrifugation at 1600 rpm for 5 mins. Scanning and image analysis: Post drying, the slides were scanned in a laser scanner (Genomic Solutions, USA) for Cy3 and Cy5 detection. The PMT settings were adjusted using the auto-exposure feature of the scanner. The TIFF files thus generated were exported to GeneTAC Integrator software (Genomic Solutions, USA) for image analysis. The resultant CSV file containing the annotated genome and the corresponding ratios were further used for data analysis.

[4] = 6 hours post treatment, control 3
[5] = 36 hours post treatment, control 98

CN1CC[C@@H](c2c(O)cc(O)c3c(=O)cc(-c4ccccc4Cl)oc23)[C@@H]1CO.Cl (relative stereo) [P276-00, (+)-trans-2-(2-Chloro-phenyl)-5,7-dihydroxy-8-(2-hydroxy-methyl-1-methyl-pyrrolidin-3-y1)-chromen-4-one hydrochloride]
% Cytotoxicity (Panc-1 cells [1]; 60 nM): 27%
% Cytotoxicity (Panc-1 cells [1]; 120 nM): 33%
% Cytotoxicity (Panc-1 cells [1]; 240 nM): 35%
% Cytotoxicity (Panc-1 cells [1]; 480 nM): 45%
% Cytotoxicity (Panc-1 cells [1]; 960 nM): 58%
PTN protein expression (Panc-1 cells [2]; 6 hours post treatment, control 1): 2 fluorescence units
GADD45-α protein expression (Panc-1 cells [2]; [4]): 10 fluorescence units
ID1 protein expression (Panc-1 cells [2]; [4]): 1 fluorescence units
P27 protein expression (Panc-1 cells [2]; 6 hours post treatment, control 6): 7 fluorescence units
CDC25B protein expression (Panc-1 cells [2]; 6 hours post treatment, control 7): 2 fluorescence units
CDKN2A protein expression (Panc-1 cells [2]; 6 hours post treatment, control 8): 76 fluorescence units
CCND1 protein expression (Panc-1 cells [2]; 6 hours post treatment, control 74): 84 fluorescence units
GAPDH protein expression (Panc-1 cells [2]; 6 hours post treatment, control 80): 96 fluorescence units
CASP3 protein expression (Panc-1 cells [2]; 6 hours post treatment, control 147): 152 fluorescence units
MMP-1 protein expression (Panc-1 cells [2]; 6 hours post treatment, control 501): 618 fluorescence units
COX15 protein expression (Panc-1 cells [2]; 6 hours post treatment, control 627): 907 fluorescence units
COX2 protein expression (Panc-1 cells [2]; 6 hours post treatment, control 635): 406 fluorescence units
BAX protein expression (Panc-1 cells [2]; 6 hours post treatment, control 819): 700 fluorescence units
VEGF protein expression (Panc-1 cells [2]; 6 hours post treatment, control 829): 618 fluorescence units
BCL2 protein expression (Panc-1 cells [2]; 6 hours post treatment, control 830): 376 fluorescence units
pRB protein expression (Panc-1 cells [2]; 6 hours post treatment, control 1240): 1540 fluorescence units
Efficacy score (Panc-1 cells [2]; 6 hours): 4.7
GADD45-α protein expression (Panc-1 cells [2]; 16 hours post treatment, control 13): 23 fluorescence units
CDC25B protein expression (Panc-1 cells [2]; 16 hours post treatment, control 54): 15 fluorescence units
CDKN2A protein expression (Panc-1 cells [2]; 16 hours post treatment, control 64): 9 fluorescence units
P27 protein expression (Panc-1 cells [2]; 16 hours post treatment, control 67): 12 fluorescence units
PTN protein expression (Panc-1 cells [2]; 16 hours post treatment, control 76): 12 fluorescence units
ID1 protein expression (Panc-1 cells [2]; 16 hours post treatment, control 77): 18 fluorescence units
CCND1 protein expression (Panc-1 cells [2]; 16 hours post treatment, control 90): 46 fluorescence units
GAPDH protein expression (Panc-1 cells [2]; 16 hours post treatment, control 100): 100 fluorescence units
CASP3 protein expression (Panc-1 cells [2]; 16 hours post treatment, control 202): 607 fluorescence units
VEGF protein expression (Panc-1 cells [2]; 16 hours post treatment, control 579): 264 fluorescence units
BCL2 protein expression (Panc-1 cells [2]; 16 hours post treatment, control 644): 81 fluorescence units
BAX protein expression (Panc-1 cells [2]; 16 hours post treatment, control 711): 644 fluorescence units
COX15 protein expression (Panc-1 cells [2]; 16 hours post treatment, control 718): 852 fluorescence units
MMP-1 protein expression (Panc-1 cells [2]; 16 hours post treatment, control 929): 264 fluorescence units
COX2 protein expression (Panc-1 cells [2]; 16 hours post treatment, control 1109): 375 fluorescence units
pRB protein expression (Panc-1 cells [2]; 16 hours post treatment, control 2583): 1400 fluorescence units
Efficacy score (Panc-1 cells [2]; 16 hours): 10.8
GADD45-α protein expression (Panc-1 cells [2]; 36 hours post treatment, control 19): 31 fluorescence units
P27 protein expression (Panc-1 cells [2]; 36 hours post treatment, control 96): 5 fluorescence units
CCND1 protein expression (Panc-1 cells [2]; [5]): 25 fluorescence units
CDC25B protein expression (Panc-1 cells [2]; [5]): 4 fluorescence units
GAPDH protein expression (Panc-1 cells [2]; [5]): 2 fluorescence units
ID1 protein expression (Panc-1 cells [2]; [5]): 6 fluorescence units
PTN protein expression (Panc-1 cells [2]; 36 hours post treatment, control 100): 100 fluorescence units
CASP3 protein expression (Panc-1 cells [2]; 36 hours post treatment, control 265): 670 fluorescence units
BAX protein expression (Panc-1 cells [2]; 36 hours post treatment, control 715): 1120 fluorescence units
COX15 protein expression (Panc-1 cells [2]; 36 hours post treatment, control 722): 1327 fluorescence units
VEGF protein expression (Panc-1 cells [2]; 36 hours post treatment, control 1093): 355 fluorescence units
MMP-1 protein expression (Panc-1 cells [2]; 36 hours post treatment, control 1316): 355 fluorescence units
BCL2 protein expression (Panc-1 cells [2]; 36 hours post treatment, control 1410): 374 fluorescence units
CDKN2A protein expression (Panc-1 cells [2]; 36 hours post treatment, control 1441): 707 fluorescence units
pRB protein expression (Panc-1 cells [2]; 36 hours post treatment, control 2840): 1657 fluorescence units
Efficacy score (Panc-1 cells [2]; 36 hours): 11.1
CDK8 gene expression value (log value of intensities) (Panc-1 cells [3]): 0.16
DICER1 gene expression value (log value of intensities) (Panc-1 cells [3]): 0.14
DLG5 gene expression value (log value of intensities) (Panc-1 cells [3]): 0.25
DNAI1 gene expression value (log value of intensities) (Panc-1 cells [3]): −0.20
FA38A gene expression value (log value of intensities) (Panc-1 cells [3]): −0.93
FGF5 gene expression value (log value of intensities) (Panc-1 cells [3]): 0.23
HELLS gene expression value (log value of intensities) (Panc-1 cells [3]): 0.62
HIST1H2BO gene expression value (log value of intensities) (Panc-1 cells [3]): −0.39
ID1 gene expression value (log value of intensities) (Panc-1 cells [3]): 0.18
MKKS gene expression value (log value of intensities) (Panc-1 cells [3]): −0.08
PPIL4 gene expression value (log value of intensities) (Panc-1 cells [3]): 0.30
RRM2 gene expression value (log value of intensities) (Panc-1 cells [3]): −0.14
SLC19A2 gene expression value (log value of intensities) (Panc-1 cells [3]): 0.97
SNX7 gene expression value (log value of intensities) (Panc-1 cells [3]): −0.12
TMPRSS3 gene expression value (log value of intensities) (Panc-1 cells [3]): 0.33
